In patent US7354928B2, “Small molecule inhibitors targeted at Bcl-2” (The Regents of the University of Michigan, priority 2001, dated 2008) one finds melting point, solubility and IC50 data, which are given here for five compounds.

Read-outs that look alike come from different tables or passages of the source.

The nature of data set [1]: Solubility in DMSO or chloroform. It counts as physicochemical. The procedure: Compound 5. FABMS 613.2 (M+H)^+. Insoluble in either DMSO or chloroform.
Subsequently ^1H NMR spectra for the five active compounds were performed. The ^1H NMR spectrum for compound 5 is not determined, because it is insoluble in either DMSO or chloroform. The ^1H NMR spectra for compounds 6, 7, 8 and 11 are consistent with their chemical structures.

Data set [2] relates to Bcl-2/Bcl-XL. The settings on record: reported by Tzung et al.; read-out: IC50, inhibitor of Bcl-2/Bcl-XL; cited from earlier work.
Data set [3] concerns HL-60 cells. Briefly: Cell viability, trypan blue exclusion, HL-60. Type of data set: cell-based. The settings on record: Homo sapiens; HL-60, trypan blue exclusion, 24 hours; read-out: IC50, inhibition of cell viability. As for the experimental part: FIG. 3 illustrated the effects of Compound 6 on cell viability. Cells are plated in 24-well plates, incubated with the compound at appropriate concentrations for […]. Cell viability is determined by trypan blue exclusion with hemocytometer. Percent of viable cells, as compared with untreated cells, is plotted against drug concentration.
First, in some embodiments, the trypan blue exclusion method was used to determine the effect of an inhibitor on cell viability in which cells were treated with the inhibitor for 24 hours. Second, in some other embodiments, the MTT assay was used to determine the activity of an inhibitor on cell proliferation where cells were treated for four days. All the 7 active compounds were tested using the HL-60 cell line that expresses the highest level of Bcl-2 protein among all the cancer cell lines examined.
Cells and Reagents. Human breast cell lines (T47D, MDA-231, MDA-453), and human Leukemia cells HL-60 were obtained from the American Type Culture Collection (ATCC). All tumor cell lines were grown and maintained in RPMI 1640 medium containing 10% FBS, except MDA-MB-231, which used Dulbecco's modified Eagle's medium as basal medium. Cultures were maintained in a humidified incubator at 37° C. and 5% CO2.
Cell viability was determined by the trypan blue assay. […] Trypan blue dye was added 24 hours later and the percentage of viable cells were determined.

Data set [4] has as its target T1, GST-fused Bcl-2 protein (Homo sapiens, UniProt P10415).
T1 construct: purchased Santa Cruz Biotechnology (Santa Cruz, Calif.)
Briefly: Bcl-2 fluorescence polarization (FP) competitive binding assay with Flu-Bak-BH3 peptide. The settings on record: read-out: IC50, inhibition of Bak BH3 peptide binding to Bcl-2, 290 nM tracer, 270 nM Bcl-2 protein.

T1 sequence (P10415 1-205 limits assumed): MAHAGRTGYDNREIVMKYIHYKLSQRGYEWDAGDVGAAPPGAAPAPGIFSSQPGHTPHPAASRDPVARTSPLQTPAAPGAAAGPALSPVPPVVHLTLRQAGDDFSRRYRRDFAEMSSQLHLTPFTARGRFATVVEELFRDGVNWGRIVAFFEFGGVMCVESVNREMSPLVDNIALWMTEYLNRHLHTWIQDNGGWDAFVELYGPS

With `COc1ccc2c(c1)CCc1cc(OC)ccc1[N+]([O-])=[N+]2[O-]` [Compound 6a, 2,9-Dimethoxy-11,12-dihydrodibenzo [c,g] [1,2] diazocine-5,6-dioxide], the melting point fell in the range of 136 to 138 °C.
For `O=C1c2cc(Br)ccc2-c2ccc3c4ccc5c6c(ccc(c7ccc1c2c73)c64)C(=O)c1cc(Br)ccc1-5` [Compound 5], the solubility entry was “Insoluble” in data set [1] and “insoluble” in data set [1] (listed as compound 5).
In the case of antimycin A, the IC50 in data set [2] was 2000 nM.
As for `Brc1cccc[n+]1-c1ccc2cc(-[n+]3ccccc3Br)ccc2c1` [Compound 10], the IC50 in data set [3] was no less than 50000 nM.
As for `Nc1nc(-c2ccccc2)nc2c1[n+]([O-])c1ccccc1[n+]2[O-]` [Compound 7], the IC50 in data set [4] turned out to be 1600 nM.

As a reminder, the melting point is the temperature of the solid-liquid transition.
